How the values were obtained:
Plasmodium falciparum [1] = assay: Antiplasmodial activity against chloroquine-resistant Plasmodium falciparum W2 assessed as inhibition of parasite LDH activity […] after 72 hrs by malstat reagent method; type: functional, organism-based; conditions: W2, 72 h
Plasmodium falciparum [2] = assay: Antiplasmodial activity against chloroquine-sensitive Plasmodium falciparum D6 assessed as inhibition of parasite LDH activity after 72 hrs by malstat reagent method; type: functional, organism-based; conditions: D6, 72 h
[3] = Inhibition of human PP2A
[4] = Inhibition of human PP1
Homo sapiens [5] = species: Homo sapiens; assay: Inhibition of human PP1 at 100 uM
Homo sapiens [6] = species: Homo sapiens; assay: Inhibition of human PP2A at 100 uM

Row | SMILES | IC50 (Plasmodium falciparum [1]) | IC50 (Plasmodium falciparum [2]) | IC50 [3] | IC50 [4] | inhibition (Homo sapiens [5]) | inhibition (Homo sapiens [6])
1 | CCCCCCCCCCN1C(=O)C2C(C1=O)[C@H]1CC[C@@H]2O1 (some centres not stated) | 141 µM | 375 µM | – | – | – | –
2 | O=C(O)C1C(C(=O)Nc2cccc(CO)c2)[C@H]2CC[C@@H]1O2 (some centres not stated) | 390 µM | 440 µM | 7 µM | 15 µM | – | –
3 | O=C(O)CCCNC(=O)C1C(C(=O)O)[C@@H]2CC[C@H]1O2 (some centres not stated) | > 500 µM | > 500 µM | 3.3 µM | 15 µM | – | –
4 | CCCNC(=O)C1C(C(=O)O)[C@@H]2CC[C@H]1O2 (some centres not stated) | > 500 µM | > 500 µM | 18 µM | 46 µM | – | –
5 | O=C(O)C1C(C(=O)NCCN2CCOCC2)[C@H]2CC[C@@H]1O2 (some centres not stated) | > 500 µM | > 500 µM | 43 µM | 30 µM | – | –
6 | O=C(O)C1C(C(=O)NCc2ccc(C(F)(F)F)cc2)[C@H]2CC[C@@H]1O2 (some centres not stated) | 433 µM | 248 µM | 20 µM | 16 µM | – | –
7 | O=C(O)C1C(C(=O)NCc2ccc(F)c(F)c2)[C@H]2CC[C@@H]1O2 (some centres not stated) | > 500 µM | 473 µM | 26 µM | 26 µM | – | –
8 | Nc1ccccc1CN1C(=O)C2C(C1=O)[C@H]1CC[C@@H]2O1 (some centres not stated) | > 500 µM | > 500 µM | – | – | – | –
9 | O=C1C2C(C(=O)N1N1CCOCC1)[C@H]1CC[C@@H]2O1 (some centres not stated) | > 500 µM | > 500 µM | – | – | – | –
10 | CCc1ccccc1NC(=O)C1C(C(=O)O)[C@@H]2CC[C@H]1O2 (some centres not stated) | 400 µM | 360 µM | 24 µM | 51 µM | – | –
11 | C#Cc1cccc(NC(=O)C2C(C(=O)O)[C@@H]3CC[C@H]2O3)c1 (some centres not stated) | 194 µM | 193 µM | 16 µM | 20 µM | – | –
12 | O=C(O)C1C(C(=O)Nc2cccc(Cl)c2)[C@H]2CC[C@@H]1O2 (some centres not stated) | 185 µM | 250 µM | 14 µM | 31 µM | – | –
13 | CC(C)C[C@@H](C(=O)O)N1C(=O)C2C(C1=O)[C@H]1CC[C@@H]2O1 (some centres not stated) | > 500 µM | > 500 µM | – | – | – | –
14 | CC(C)(C)c1cc(NC(=O)C2C(C(=O)O)[C@@H]3CC[C@H]2O3)cc(C(C)(C)C)c1 (some centres not stated) | 176 µM | 59.3 µM | 8.2 µM | 8.2 µM | – | –
15 | O=C1C2C(C(=O)N1CCCCCCO)[C@H]1CC[C@@H]2O1 (some centres not stated) | > 500 µM | > 500 µM | – | – | – | –
16 | C=Cc1ccc(NC(=O)C2C(C(=O)O)[C@@H]3CC[C@H]2O3)cc1 (some centres not stated) | 400 µM | > 500 µM | 11 µM | 23 µM | – | –
17 | O=C(O)C1C(C(=O)Nc2ccc(I)cc2)[C@H]2CC[C@@H]1O2 (some centres not stated) | 248 µM | 230 µM | 14 µM | 33 µM | – | –
18 | COc1ccc(CNC(=O)C2C(C(=O)O)[C@@H]3CC[C@H]2O3)cc1 (some centres not stated) | > 500 µM | > 500 µM | 13 µM | 35 µM | – | –
19 | CCCCNC(=O)C1C(C(=O)O)[C@@H]2CC[C@H]1O2 (some centres not stated) | > 500 µM | > 500 µM | 24 µM | 70 µM | – | –
20 | O=C(O)C1C(C(=O)Nc2ccccc2O)[C@H]2CC[C@@H]1O2 (some centres not stated) | 380 µM | 385 µM | – | – | 33% | 9.8%
21 | Cc1cccc(C)c1NC(=O)C1C(C(=O)O)[C@@H]2CC[C@H]1O2 (some centres not stated) | 290 µM | 306 µM | – | – | 68% | 24%
22 | O=C1C2C(C(=O)N1C1CCCCC1)[C@H]1CC[C@@H]2O1 (some centres not stated) | 55 µM | 140 µM | – | – | – | –
23 | O=C(O)C1C(C(=O)N2CCSCC2)[C@H]2CC[C@@H]1O2 (some centres not stated) | 204 µM | 250 µM | 5.1 µM | 3.2 µM | – | –
24 | O=C(O)C1C(C(=O)NCCc2ccccc2)[C@H]2CC[C@@H]1O2 (some centres not stated) | 300 µM | 243 µM | 29 µM | 33 µM | – | –
25 | O=C(O)C1C(C(=O)Nc2ccccc2)[C@H]2CC[C@@H]1O2 (some centres not stated) | 363 µM | 300 µM | 7.7 µM | 24 µM | – | –

Row | SMILES | IC50 (Plasmodium falciparum [1]) | IC50 (Plasmodium falciparum [2]) | IC50 [3] | IC50 [4] | inhibition (Homo sapiens [5]) | inhibition (Homo sapiens [6])
26 | COc1ccc(CN2C(=O)C3C(C2=O)[C@H]2CC[C@@H]3O2)cc1 (some centres not stated) | 25 µM | 24 µM | – | – | – | –
27 | O=C(O)C1C(C(=O)NCCCc2ccccc2)[C@H]2CC[C@@H]1O2 (some centres not stated) | 230 µM | 383 µM | 25 µM | 25 µM | – | –
28 | O=C(O)C1C(C(=O)Nc2ccc(CO)cc2)[C@H]2CC[C@@H]1O2 (some centres not stated) | 163 µM | 160 µM | 7.2 µM | 15 µM | – | –
29 | CC(C)(C)c1ccc(NC(=O)C2C(C(=O)O)[C@@H]3CC[C@H]2O3)cc1 (some centres not stated) | > 500 µM | 405 µM | 11 µM | 10 µM | – | –
30 | CC(CO)N1C(=O)C2C(C1=O)[C@H]1CC[C@@H]2O1 (some centres not stated) | > 500 µM | > 500 µM | – | – | – | –
31 | CCCCCCCCN1C(=O)C2C(C1=O)[C@H]1CC[C@@H]2O1 (some centres not stated) | 250 µM | 225 µM | – | – | – | –
32 | O=C(O)C1C(C(=O)Nc2ccc([N+](=O)[O-])cc2)[C@H]2CC[C@@H]1O2 (some centres not stated) | 393 µM | > 500 µM | 23 µM | 74 µM | – | –
33 | O=C1C2C(C(=O)N1CCN1CCOCC1)[C@H]1CC[C@@H]2O1 (some centres not stated) | > 500 µM | > 500 µM | – | – | – | –
34 | COc1ccc(NC(=O)C2C(C(=O)O)[C@@H]3CC[C@H]2O3)cc1 (some centres not stated) | > 500 µM | 500 µM | 16 µM | 16 µM | – | –
35 | CCCCCOc1ccc(NC(=O)C2C(C(=O)O)[C@@H]3CC[C@H]2O3)cc1 (some centres not stated) | 333 µM | 110 µM | 15 µM | 11 µM | – | –
36 | CCCCN1C(=O)C2C(C1=O)[C@H]1CC[C@@H]2O1 (some centres not stated) | 12.5 µM | 8.9 µM | – | – | – | –
37 | CCCN1C(=O)C2C(C1=O)[C@H]1CC[C@@H]2O1 (some centres not stated) | > 500 µM | > 500 µM | – | – | – | –
38 | CCN1C(=O)C2C(C1=O)[C@H]1CC[C@@H]2O1 (some centres not stated) | > 500 µM | > 500 µM | – | – | – | –
39 | CCC(C)N1C(=O)C2C(C1=O)[C@H]1CC[C@@H]2O1 (some centres not stated) | 125 µM | 225 µM | – | – | – | –
40 | CCCCCCNC(=O)C1C(C(=O)O)[C@@H]2CC[C@H]1O2 (some centres not stated) | 390 µM | > 500 µM | 13 µM | 35 µM | – | –
41 | O=C(O)C1C(C(=O)Nc2cccc(I)c2)[C@H]2CC[C@@H]1O2 (some centres not stated) | 283 µM | 217 µM | 18 µM | 44 µM | – | –
42 | NCCCN1C(=O)C2C(C1=O)[C@H]1CC[C@@H]2O1 (some centres not stated) | > 500 µM | > 500 µM | – | – | – | –
43 | O=C(O)CCCCCNC(=O)C1C(C(=O)O)[C@@H]2CC[C@H]1O2 (some centres not stated) | > 500 µM | 260 µM | 3.5 µM | 14 µM | – | –
44 | O=C(O)C1C(C(=O)Nc2ccc3ccccc3c2)[C@H]2CC[C@@H]1O2 (some centres not stated) | 257 µM | 280 µM | 15 µM | 14 µM | – | –
45 | CC(C)(CO)N1C(=O)C2C(C1=O)[C@H]1CC[C@@H]2O1 (some centres not stated) | > 500 µM | > 500 µM | – | – | – | –
46 | CCCCCCOc1ccc(NC(=O)C2C(C(=O)O)[C@@H]3CC[C@H]2O3)cc1 (some centres not stated) | 70 µM | 130 µM | 20 µM | 60 µM | – | –
47 | O=C(O)C1C(C(=O)Nc2ccc(O)cc2)[C@H]2CC[C@@H]1O2 (some centres not stated) | 333 µM | 265 µM | 7.7 µM | 28 µM | – | –
48 | CSc1ccc(NC(=O)C2C(C(=O)O)[C@@H]3CC[C@H]2O3)cc1 (some centres not stated) | > 500 µM | > 500 µM | 14 µM | 10 µM | – | –
49 | CCCCCCN1C(=O)C2C(C1=O)[C@H]1CC[C@@H]2O1 (some centres not stated) | 90 µM | 175 µM | – | – | – | –

Source: ChEMBL document CHEMBL1268944, “The antiplasmodial activity of norcantharidin analogs” (Bioorg Med Chem Lett, 2010)
